Results: patent US11046722B2, “Sulphated disaccharides for the treatment of neuropathic pain” (BIOIBERICA, S.A.U., priority 2017, dated 2021)

How the values were obtained:
[1] = tested on: allodynia induced in mice by injecting paclitaxel; experiment: Neuropathic pain induced by chemotherapy (paclitaxel): reversal by a single dose after induction; type: in vivo; settings: paclitaxel 2 mg/Kg i.p. for 5 days, day 10, single oral dose, increasing doses 7.5, 15 and 30 mg/Kg, 45 minutes after administration
Protocol: In Example 3 an experimental model is used in mice based on inducing allodynia by intraperitoneal injection of paclitaxel, as described in the articles by Smith et al., Paclitaxel-induced neuropathic hypersensitivity in mice: responses in 10 inbred mouse strains, Life Sci., 2014, 2593-2604 and Palomano et al., Chemotherapy-evoked painful peripheral neuropathy, Pain Med., 2001, 2 (1), 8-14. In alternative trials, compound Ic was administered after allodynia induction by paclitaxel, or it was administered jointly with this chemotherapy medication. It is observed that compound Ic is effective at both reversing the allodynia induced by paclitaxel (FIG. 4), and preventing the development thereof when coadministered with paclitaxel (FIG. 5).
In this test, groups of mice between 7 and 12 animals were used, to which a daily dose of paclitaxel of 2 mg/Kg was administered by intraperitoneal route for 5 consecutive days (except for the control group). The evaluation of the induced mechanical allodynia was carried out on the 10th day after the first paclitaxel injection, and was quantified by using the von Frey filaments, according to the force threshold necessary to cause the paw withdrawal of the animal. […]

[2] = tested on: mechanical allodynia due to diabetes induced by injecting streptozotocin; experiment: Diabetic allodynia induced by streptozotocin injection (von Frey, 50% pain threshold); type: in vivo, mice; settings: streptozotocin 60 mg/Kg i.p. for five days, day 25, 45 minutes after administration
Text: In Example 5 an experimental trial is described of mechanical allodynia in diabetic mice induced by intraperitoneal streptozotocin injection, based on the model described in the article by Courteix et al., Streptozotocin-induced diabetic rats: behavioural evidence for a model of chronic pain, Pain, 1993, 81-88. This model is based on causing a mechanical allodynia in mice by inducing diabetes by means of intraperitoneal streptozotocin injection. It is observed that the administration of different doses of compound Ic is effective in reversing the allodynia induced by diabetes, as quantified by the statistically significant increase observed in the treated animals, of the threshold force that is necessary to apply in order to produce paw withdrawal in the animals (FIG. 7). […] For the evaluation of the effect of the Ic compound on the allodynia induced in this manner by diabetes, five groups of animals were used with at least 7 animals in each group, and the allodynia was quantified using von Frey filaments, according to the force threshold necessary to cause the animal's paw's withdrawal. Compound Ic was administered orally to the animals by gavage, in a single administration and allodynia was measured in each animal immediately before the administration and 45 minutes after the administration. […]

For `CO[C@H]1O[C@H](COS(=O)(=O)[O-])[C@@H](OS(=O)(=O)[O-])[C@H](O[C@@H]2O[C@H](C(=O)[O-])[C@@H](O)[C@H](O)[C@H]2O)[C@H]1NC(C)=O.[Na+].[Na+].[Na+]` [Compound Ic, methyl 2-acetamido-2-desoxi-3-O-(β-D-glucopyranosyluronic acid)-4,6-di-O-sulfo-α-D-glucopyranoside trisodium salt], which “reversal of paclitaxel-induced allodynia” value [1] is on record?
Its value is “reversed the paclitaxel-induced allodynia”.

And the “reversal of the allodynia induced by diabetes” value ([2]; 10 mg/kg single oral dose by gavage)?
Its value is “effective at reversing the allodynia”.

And the “reversal of the allodynia induced by diabetes” value ([2]; 30 mg/kg single oral dose by gavage, differences statistically significant)?
Its value is “effective at reversing the allodynia”.
